Assay results from publication PMC11502128 (Journal of Lipids, 2024).
Like-named read-outs stand apart in the source and are kept apart here.

Experiments:
[1] = target: T1, porcine PNLIP (pancreatic lipase) (Sus scrofa, UniProt P00591); assay: PNLIP inhibition and enzyme kinetics with p-nitrophenyl palmitate; type: biochemical; details: for Pancreatic lipase Mode of inhibition: Lineweaver–Burk plot
T1 sequence (P00591 1-450): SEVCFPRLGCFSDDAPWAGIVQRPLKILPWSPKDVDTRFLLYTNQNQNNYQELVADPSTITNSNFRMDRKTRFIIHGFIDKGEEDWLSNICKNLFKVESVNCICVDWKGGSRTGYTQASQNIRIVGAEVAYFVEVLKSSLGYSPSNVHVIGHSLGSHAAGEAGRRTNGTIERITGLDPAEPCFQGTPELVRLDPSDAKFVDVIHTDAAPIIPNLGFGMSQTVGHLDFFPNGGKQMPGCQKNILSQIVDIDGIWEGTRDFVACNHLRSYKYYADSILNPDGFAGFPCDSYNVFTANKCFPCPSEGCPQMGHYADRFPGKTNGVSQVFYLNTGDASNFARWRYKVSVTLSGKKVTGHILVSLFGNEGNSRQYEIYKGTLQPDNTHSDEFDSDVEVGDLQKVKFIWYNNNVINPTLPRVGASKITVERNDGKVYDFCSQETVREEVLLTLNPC
Description: The PNLIP inhibitory activity of the compounds was tested using p-nitrophenyl palmitate (p-NPP) as an artificial substrate. […] The reaction was initiated by adding 10 mM p-NPP at 37°C for 20 min. Then, the enzyme activity was determined calorimetrically by measuring the release of p-nitrophenol measured at 405 nm using a SpectraMax paradigm microplate reader (Molecular Devices Inc, San Jose, California). The IC50 values were determined using nonlinear regression from the absorbance versus concentration curves.
The modes of enzyme inhibition were determined using the reaction protocol described above. While all the other parameters remained unchanged, the enzyme activity was measured at increasing substrate concentrations (2–10 mM) in the presence and absence of the test compound (inhibitor). Double reciprocal (Lineweaver–Burk) plots were generated and used to determine the inhibition types Km and Vmax. The inhibitory constants (Ki) of the test compounds were also calculated.

HepG2 cells [2] = assay: Cell viability assessment (crystal violet), HepG2; type: cell-based, human; details: triterpenoids at 25 and 100 μM; lovastatin 50 μM
Description: The 3T3-L1 and HepG2 cells (at 70%–80% confluence) were seeded at concentrations of 0.2 × 10^4 per 100 μL and 5.0 × 10^4 per 100 μL, respectively, in a 96-well plate. […] Control cells were exposed to either 0.01% methanol (vehicle control) or sterile phosphate buffered saline (PBS) pH 7.4. Following the exposure, the cells were fixed with 20% formalin (final concentration 2% [v/v]) at 37°C for 30 min. The solution was discarded, and the plate was blotted dry. The cells were stained with the addition of 100 μL f CV (0.1% in 200 mM formic acid) to each well. After 30 min at room temperature, the dye solution was removed, and the plate was washed well with tap water and dried. The dye was then extracted from the stained cells with 100 μL of a 10% (v/v) acetic acid solution. The absorbance was measured at 630 nm, and the results were expressed as percentage cell viability relative to the control (cells treated with PBS).

[3] = test system: differentiated 3T3-L1 adipocytes; assay: Intracellular lipid accumulation in differentiated 3T3-L1 adipocytes (ORO staining); type: cell-based, Mouse; details: 100 μM, 3 days, differentiated 3T3-L1, relative to control
Description: (§1) The differentiation of 3T3-L1 cells was performed as described by Ibrahim et al. with slight modifications. The preadipocyte cells were seeded at a concentration of 0.2 × 10^4 per 100 μL into each of the wells of a 96-well plate and were grown at 37°C with 5% CO2 for 3 days, until confluent. On Day 4, differentiation was induced by replacing the medium with 100 μL Differentiation Medium 1 (DM1, DMEM supplemented with final concentrations of 10 μg/mL insulin, 0.5 mM isobutyl methylxanthine, 1 μM dexamethasone, and 2 μM rosiglitazone) for further 3 days. On Day 8, DM1 was replaced with DM2 (DMEM with only 10 μg/mL insulin) for 3 days. Finally, DM2 was replaced with only DMEM, and the cells were exposed to the different concentrations (1–100 μM) of the test compounds for a further 3 days. Control cells were exposed to either the vehicle control or sterile PBS.
The ORO staining technique was used to detect lipid droplets in both differentiated adipocytes and OA-exposed hepatocytes. […] The ORO dye was then extracted with 60% isopropanol, and the absorbance was measured at 405 nm. For the 3T3-L1 cells, the percentage of lipid accumulation was relative to the control cells (PBS-treated) cells, with 100% lipid formation, while for HepG2, the results were expressed as the percentage of lipid accumulation relative to cells exposed to OA.

[4] = test system: differentiated 3T3-L1 adipocytes; assay: Neutral lipid accumulation in differentiated 3T3-L1 adipocytes (NR staining); type: cell-based, Mouse; details: 100 μM, 3 days, differentiated 3T3-L1, relative to control
Description: as §1, with “Finally, DM2 was replaced with only DMEM, and the cells were exposed to the different concentrations (1–100 μM) of the test compounds for a further 3 days. Control cells were exposed to either the vehicle control or sterile PBS.” left out
With NR staining, the accumulation of neutral lipids was assessed in the differentiated 3T3-L1 cells and OA-induced lipid accumulation in HepG2 cells following treatment with the triterpenoids. […] Background fluorescence was measured at an excitation and an emission wavelength of 485 nm and 590 nm (Ex4850 and Em590), respectively. […] The dye was extracted from the stained cells with 100 μL PBS, and the fluorescence was measured again at Ex450 and Em590. The difference in fluorescence between the extracted dye and background fluorescence was calculated. The percentage of intracellular lipid accumulation relative to the untreated control cells was calculated.

HepG2 cells [5] = assay: Oleic acid-induced hepatic lipid accumulation in HepG2 cells (ORO staining); type: cell-based, human; details: 100 μM, 48 h, HepG2 exposed to 1 mM oleic acid
Description: (§2) The HepG2 cells were seeded in a 96-well plate at a cell density of 5 × 10^4 and left to attach overnight. The cells were incubated at 37°C, 5% CO2 for 48 h, and 1 mM OA (final concentration) to stimulate lipid accumulation. […] Control cells were exposed to either the vehicle control or sterile PBS.
The ORO staining technique was used to detect lipid droplets in both differentiated adipocytes and OA-exposed hepatocytes. The cells were fixed with 2% (v/v) formaldehyde for 30 min at 37°C. The formaldehyde was then discarded, and the plates were air-dried. The fixed cells were stained with ORO staining solution (three parts of 0.5% ORO (w/v) in 60% isopropyl alcohol and two parts of water) for 1 h. After staining, the excess ORO was discarded, and the plates were rinsed with water and dried. Microscopic images were acquired with an Olympus microscope (Olympus, Tokyo, Japan). The ORO dye was then extracted with 60% isopropanol, and the absorbance was measured at 405 nm. For the 3T3-L1 cells, the percentage of lipid accumulation was relative to the control cells (PBS-treated) cells, with 100% lipid formation, while for HepG2, the results were expressed as the percentage of lipid accumulation relative to cells exposed to OA.

HepG2 cells [6] = assay: Oleic acid-induced neutral lipid accumulation in HepG2 cells (NR staining); type: cell-based, human; details: 100 μM, 48 h, HepG2 exposed to 1 mM oleic acid
Description: as §2
With NR staining, the accumulation of neutral lipids was assessed in the differentiated 3T3-L1 cells and OA-induced lipid accumulation in HepG2 cells following treatment with the triterpenoids. The cells were washed with PBS and fixed with 4% formaldehyde for 1 h, and then the cells were stained with the NR staining solution (100 μM in 100% DMSO) in the dark for 3 h. Background fluorescence was measured at an excitation and an emission wavelength of 485 nm and 590 nm (Ex4850 and Em590), respectively. The dye solution was then discarded, the wells were then rinsed with PBS, and the plate was blotted dry. The dye was extracted from the stained cells with 100 μL PBS, and the fluorescence was measured again at Ex450 and Em590. The difference in fluorescence between the extracted dye and background fluorescence was calculated. The percentage of intracellular lipid accumulation relative to the untreated control cells was calculated.

PPARγ gene = assay: qRT-PCR PPARγ mRNA expression in differentiated 3T3-L1 adipocytes; type: cell-based, Mouse; details: 100 μM, 3 days
Description: (§3) The mRNA expression of selected lipogenic and lipolytic genes was quantified using qRT–PCR following the established protocol as described by Ndlovu et al.. […] The RNA was extracted with the […] RNA extraction kit. The RNA was then converted into cDNA using an iScript cDNA Synthesis Kit from […] following the manufacturer's protocols. qRT–PCR analysis was performed using Bio-Rad CFX Maestro software. All mRNA expression levels were standardized to ensure consistency using glyceraldehyde 3-phosphate dehydrogenase (GAPDH) as a reference gene. The primers used were designed using the BLAST NCBI online server (https://www.ncbi.nlm.nih.gov/tools/primer-blast/). Data was expressed as fold change relative to the untreated control.

C/EBPα gene = assay: qRT-PCR C/EBPα mRNA expression in differentiated 3T3-L1 adipocytes; type: cell-based, Mouse; details: 100 μM, 3 days
Description: as §3

HSL gene = assay: qRT-PCR HSL mRNA expression in differentiated 3T3-L1 adipocytes; type: cell-based, Mouse; details: 100 μM, 3 days
Description: as §3

AMPK gene = assay: qRT-PCR AMPK mRNA expression in differentiated 3T3-L1 adipocytes; type: cell-based, Mouse; details: 100 μM, 3 days, not significant versus control
Description: as §3

[7] = test system: differentiated 3T3-L1 cells; assay: Glycerol release from isoproterenol-stimulated differentiated adipocytes (lipolysis); type: cell-based, Mouse; details: 100 μM, 3 days, then 100 nM isoproterenol 3 h
Description: Subsequently, the cells were exposed to isoproterenol (final concentration of 100 nM) for 3 h to stimulate lipolysis. The glycerol levels released into the medium were used as a measure of lipolysis evaluated using a commercial lipolysis colorimetric assay kit (MAK211) according to the manufacturer's instructions. Cell viability of the lipolysis-induced adipocytes was determined with CV staining.

SMILES	Pancreatic lipase Mode of inhibition [1]	Ki ([1]; Lineweaver–Burk, substrate 2–10 mM, mean ± SEM (n = 3), read-out: Pancreatic lipase Ki)	IC50 ([1]; porcine PNLIP, p-NPP substrate, pH 7.4, 37°C, mean ± SEM (n = 3), read-out: Pancreatic lipase IC50)	cytotoxicity in the HepG2 model (abstract) (HepG2 cells [2])	decrease in lipid accumulation (ORO staining) [3]	reduction in neutral lipid accumulation (NR staining) [4]	reduction of OA-induced lipid accumulation (ORO staining) (HepG2 cells [5])	reduction in neutral lipid accumulation (NR staining) (HepG2 cells [6])	reduction of PPARγ gene expression (PPARγ gene)	reduction of C/EBPα gene expression (C/EBPα gene)	reduction of HSL gene expression (HSL gene)	increase in the expression of the AMPK gene (AMPK gene)	decrease in glycerol release [7]	IC50 [1]	Ki [1]
C/C(=C/CC[C@H](C(=O)O)C1CC[C@]2(C)C3=CCC4C(C)(C)[C@H](O)CC[C@]4(C)C3CC[C@@]12C)CO (stereo partly drawn) [ARM-2, 3α,26-dihydroxytirucalla-7,24-dien-21-oic acid]	Noncompetitive	52.9 ± 7.19 µM	35.8 ± 12.4 µM	lacked cytotoxicity	22.21%	19.27%	31.56%	40%	59.30%	55.65%	60.38%	39.10%	36.47%	–	–
CCCCCCCCCCC[C@@H](C[C@@H]1OC(=O)[C@H]1CCCCCC)OC(=O)[C@H](CC(C)C)NC=O [Orlistat, orlistat, reference compound]	Uncompetitive	–	–	–	–	–	–	–	–	–	–	–	–	–	–
CC(C)=CCCC(C(=O)O)C1CCC2(C)C3CCC4C(C)(CCC(O)C4(C)C)C3=CCC12C (stereo not drawn) [RA-5, 3β-hydroxylanosta-9,24-dien-21-oic acid]	mixed type of inhibition	–	–	lacked cytotoxicity	20.67%	10.37%	23.47%	39%	77.40%	49.72%	66.54%	28.05%	34.72%	27.6 ± 8.51 µM	28.7 ± 8.84 µM
